Experiments:
Renin [1] = biological target: T1, Renin (Rattus norvegicus, UniProt P08424); test: Inhibition against rat plasma renin.; format: cell-free
T1 sequence (P08424 whole entry): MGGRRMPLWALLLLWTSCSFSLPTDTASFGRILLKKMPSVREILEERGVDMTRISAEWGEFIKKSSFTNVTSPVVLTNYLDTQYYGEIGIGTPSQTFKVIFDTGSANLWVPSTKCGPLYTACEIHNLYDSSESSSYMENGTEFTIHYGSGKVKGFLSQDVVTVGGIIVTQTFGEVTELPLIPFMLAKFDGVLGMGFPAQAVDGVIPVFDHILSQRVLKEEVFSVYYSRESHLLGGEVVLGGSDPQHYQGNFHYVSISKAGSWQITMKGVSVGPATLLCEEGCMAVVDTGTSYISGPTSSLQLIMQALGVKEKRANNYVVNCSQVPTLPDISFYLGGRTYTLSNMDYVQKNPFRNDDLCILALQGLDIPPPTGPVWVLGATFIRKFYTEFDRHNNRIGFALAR

[2] = biological target: T2, Renin (Rattus norvegicus) (UniProt P08424); test: Percentage inhibition against rat plasma renin at 1.0x10E-5M; format: cell-free
T2 sequence (whole entry): T1 sequence (P08424 whole entry)

Pepsin A (Sus scrofa) = Pepsin A (Sus scrofa) (UniProt P00791); test: Percentage inhibition against pepsin; NI=no inhibition at 1.0x10E-5M
Pepsin A (Sus scrofa), sequence (P00791 60-385 limits assumed): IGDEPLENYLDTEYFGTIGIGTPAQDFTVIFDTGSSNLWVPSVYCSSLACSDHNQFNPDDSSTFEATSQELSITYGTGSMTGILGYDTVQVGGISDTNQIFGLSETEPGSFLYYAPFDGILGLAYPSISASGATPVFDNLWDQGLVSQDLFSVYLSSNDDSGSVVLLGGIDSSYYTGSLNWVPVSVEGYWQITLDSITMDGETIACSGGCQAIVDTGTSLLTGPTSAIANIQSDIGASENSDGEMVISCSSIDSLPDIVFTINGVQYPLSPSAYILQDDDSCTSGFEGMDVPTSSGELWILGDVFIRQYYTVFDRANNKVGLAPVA

Renin [3] = biological target: T3, Renin (Homo sapiens, UniProt P00797); test: Inhibition against human plasma renin; format: cell-free
T3 sequence (P00797 whole entry): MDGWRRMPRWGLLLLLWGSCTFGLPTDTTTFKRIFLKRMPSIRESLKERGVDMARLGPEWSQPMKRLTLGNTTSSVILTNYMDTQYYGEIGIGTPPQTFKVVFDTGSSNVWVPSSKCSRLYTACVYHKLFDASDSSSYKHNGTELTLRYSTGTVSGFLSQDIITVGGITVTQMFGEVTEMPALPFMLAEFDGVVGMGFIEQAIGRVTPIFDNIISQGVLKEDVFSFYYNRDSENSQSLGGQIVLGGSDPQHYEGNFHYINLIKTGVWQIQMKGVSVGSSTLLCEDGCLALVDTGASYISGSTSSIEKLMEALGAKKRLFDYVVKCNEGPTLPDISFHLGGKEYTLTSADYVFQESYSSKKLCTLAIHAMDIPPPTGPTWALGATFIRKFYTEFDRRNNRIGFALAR

Cathepsin D = biological target: T4, Cathepsin D (Bos taurus, UniProt P80209); test: Inhibition against cathepsin D
T4 sequence (P80209 whole entry): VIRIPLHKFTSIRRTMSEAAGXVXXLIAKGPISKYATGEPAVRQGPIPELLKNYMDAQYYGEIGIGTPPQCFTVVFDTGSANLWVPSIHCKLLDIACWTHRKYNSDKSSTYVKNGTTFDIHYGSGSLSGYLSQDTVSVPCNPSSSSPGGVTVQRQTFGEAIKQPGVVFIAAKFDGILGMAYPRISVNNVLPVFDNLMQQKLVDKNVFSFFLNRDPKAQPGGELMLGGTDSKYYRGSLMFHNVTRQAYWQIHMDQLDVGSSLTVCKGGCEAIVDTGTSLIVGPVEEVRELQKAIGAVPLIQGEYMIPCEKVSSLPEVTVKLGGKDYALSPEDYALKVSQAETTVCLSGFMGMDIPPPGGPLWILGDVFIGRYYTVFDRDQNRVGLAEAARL

Renin [4] = biological target: T3, Renin; test: Inhibition against purified human renal renin
Cathepsin D (Bos taurus) = biological target: T5, Cathepsin D (Bos taurus) (UniProt P80209); test: Percentage inhibition against cathepsin D at 1.0x10E-5M
T5 sequence (whole entry): T4 sequence (P80209 whole entry)

Renin [5] = biological target: T3, Renin; test: Inhibition against purified human renin
Renin [6] = biological target: T1, Renin; test: Inhibition against rat plasma renin; format: cell-free
[7] = biological target: T2, Renin (Rattus norvegicus); test: Percentage inhibition against rat plasma renin; format: cell-free; conditions: concentration not given here

| IC50 (Renin [1]) | inhibition [2] | inhibition (Pepsin A (Sus scrofa)) | IC50 (Renin [3]) | IC50 (Cathepsin D) | IC50 (Renin [4]) | inhibition (Cathepsin D (Bos taurus)) | IC50 (Renin [5]) | SMILES | further results |
| --- | --- | --- | --- | --- | --- | --- | --- | --- | --- |
| > 10 µM | 0% | No inhibition | 0.041 µM | > 10 µM | 0.0091 µM | 0% | – | COc1ccc(C[C@H](NC(=O)OC(C)(C)C)C(=O)N[C@@H](Cc2c[nH]cn2)C(=O)N[C@@H](CC2CCCCC2)[C@@H](O)CCS(=O)(=O)C(C)C)cc1 | – |
| – | – | – | – | – | – | – | 4.8 µM | CC(C)C[C@H](NC(=O)[C@H](C)NC(=O)[C@H](Cc1ccccc1)NC(=O)OC(C)(C)C)[C@@H](O)CCSC(C)C | – |
| > 10 µM | 2% | No inhibition | 1 µM | > 10 µM | 0.14 µM | 18% | – | CCS(=O)(=O)CC[C@H](O)[C@H](CC1CCCCC1)NC(=O)[C@H](C)NC(=O)[C@H](Cc1ccccc1)NC(=O)OC(C)(C)C | – |
| – | – | – | – | – | – | – | 2.4 µM | CC(C)CCS(=O)(=O)CC[C@H](O)[C@H](CC(C)C)NC(=O)[C@H](C)NC(=O)[C@H](Cc1ccccc1)NC(=O)OC(C)(C)C | – |
| > 10 µM | 26% | No inhibition | 0.34 µM | > 10 µM | 0.02 µM | 0% | – | CC(C)S(=O)(=O)CC[C@H](O)[C@H](CC1CCCCC1)NC(=O)[C@H](Cc1ccccc1)NC(=O)[C@H](Cc1ccccc1)NC(=O)OC(C)(C)C | – |
| – | – | – | 0.028 µM | > 10 µM | – | – | 0.0076 µM | CCS(=O)(=O)CC[C@H](O)[C@H](CC1CCCCC1)NC(=O)[C@H](Cc1cnc[nH]1)NC(=O)[C@H](Cc1ccccc1)NC(=O)OC(C)(C)C | IC50 (Renin [6]): > 10 µM |
| > 10 µM | 30% | No inhibition | 0.019 µM | > 10 µM | 0.006 µM | 0% | – | CC(C)S(=O)(=O)CC[C@H](O)[C@H](CC1CCCCC1)NC(=O)[C@H](Cc1c[nH]cn1)NC(=O)[C@H](Cc1ccccc1)NC(=O)CC(C)(C)C | – |
| – | – | – | – | – | – | – | 1.8 µM | CC(C)C[C@H](NC(=O)[C@H](C)NC(=O)[C@H](Cc1ccccc1)NC(=O)OC(C)(C)C)[C@@H](O)CCS(=O)(=O)CCc1ccccc1 | – |
| – | – | – | – | – | – | – | 4.2 µM | CC(C)C[C@H](NC(=O)[C@H](C)NC(=O)[C@H](Cc1ccccc1)NC(=O)OC(C)(C)C)[C@@H](O)CCSCCc1ccccc1 | – |
| – | – | – | – | – | – | – | 3.8 µM | CC(C)CCC(O)CC[C@H](O)[C@H](CC(C)C)NC(=O)[C@H](C)NC(=O)[C@H](Cc1ccccc1)NC(=O)OC(C)(C)C (some centres not stated) | – |
| – | – | – | – | – | – | – | 4.1 µM | CC(C)CSCC[C@H](O)[C@H](CC(C)C)NC(=O)[C@H](C)NC(=O)[C@H](Cc1ccccc1)NC(=O)OC(C)(C)C | – |
| – | – | – | 0.027 µM | 10 µM | – | 0% | 0.0076 µM | CC(C)S(=O)(=O)CC[C@H](O)[C@H](CC1CCCCC1)NC(=O)[C@H](Cc1c[nH]cn1)NC(=O)[C@H](Cc1ccccc1)NC(=O)OC(C)(C)C | inhibition [7]: 11%; IC50 (Renin [6]): 10 µM |
| – | – | – | – | – | – | – | 1.6 µM | CC(C)C[C@H](NC(=O)[C@H](C)NC(=O)[C@H](Cc1ccccc1)NC(=O)OC(C)(C)C)[C@@H](O)CCS(=O)(=O)C(C)C | – |
| > 10 µM | – | – | 0.023 µM | > 10 µM | 0.01 µM | – | – | CCOC(=O)N[C@@H](Cc1ccccc1)C(=O)N[C@@H](Cc1cnc[nH]1)C(=O)N[C@@H](CC1CCCCC1)[C@@H](O)CCS(=O)(=O)C(C)C | – |
| – | 12% | No inhibition | – | – | – | 0% | – | CCOC(=O)N[C@@H](Cc1ccccc1)C(=O)N[C@@H](Cc1c[nH]cn1)C(=O)N[C@@H](CC1CCCCC1)[C@@H](O)CCS(=O)(=O)C(C)C | – |
| – | – | – | 0.0007 µM | – | – | – | – | CC[C@H](C)[C@H](NC(=O)[C@@H](NC(O)[C@H](CC(C)C)NC(=O)[C@H](Cc1c[nH]cn1)NC(=O)[C@H](Cc1ccccc1)NC(=O)[C@@H]1CCCN1C(=O)[C@H](Cc1c[nH]cn1)NC(=O)OC(C)(C)C)C(C)C)C(=O)N[C@@H](Cc1c[nH]cn1)C(=O)O (some centres not stated) | – |
| – | – | – | – | – | – | – | 3.2 µM | CC(C)C[C@H](NC(=O)[C@H](C)NC(=O)[C@H](Cc1ccccc1)NC(=O)OC(C)(C)C)[C@@H](O)CCS(=O)(=O)CC(C)C | – |
| > 10 µM | 12% | No inhibition | 0.85 µM | > 10 µM | 0.076 µM | 22% | – | CC(C)S(=O)(=O)CC[C@H](O)[C@H](CC1CCCCC1)NC(=O)[C@H](C)NC(=O)[C@H](Cc1ccccc1)NC(=O)OC(C)(C)C | – |
| – | – | – | – | – | – | 0% | – | CCS(=O)(=O)CC[C@H](O)[C@H](CC1CCCCC1)NC(=O)[C@H](Cc1c[nH]cn1)NC(=O)[C@H](Cc1ccccc1)NC(=O)OC(C)(C)C | inhibition [7]: 0% |
| – | – | – | – | – | – | – | 5.2 µM | CC(C)CC[S+]([O-])CC[C@H](O)[C@H](CC(C)C)NC(=O)[C@H](C)NC(=O)[C@H](Cc1ccccc1)NC(=O)OC(C)(C)C (some centres not stated) | – |
| – | – | – | – | – | – | – | 5.5 µM | CC(C)CCSCC[C@H](O)[C@H](CC(C)C)NC(=O)[C@H](C)NC(=O)[C@H](Cc1ccccc1)NC(=O)OC(C)(C)C | – |
| – | – | – | – | – | – | – | 2.4 µM | CC(C)CCC(=O)CC[C@H](O)[C@H](CC(C)C)NC(=O)[C@H](C)NC(=O)[C@H](Cc1ccccc1)NC(=O)OC(C)(C)C | – |
| > 10 µM | 18% | No inhibition | 0.077 µM | 8 µM | 0.014 µM | – | – | CC(C)C[C@H](NC(=O)[C@H](Cc1ccccc1)NC(=O)OC(C)(C)C)C(=O)N[C@@H](CC1CCCCC1)[C@@H](O)CCS(=O)(=O)C(C)C | – |

— ChEMBL document CHEMBL1123605, “Renin inhibitors. Dipeptide analogues of angiotensinogen incorporating transition-state, nonpeptidic replacements at the scissile bond” (J Med Chem, 1987)
